Assay [1] addresses T1, Tie2 (Homo sapiens, UniProt Q02763). Description: Tie-2-Kinase HTRF-Assay without kinase preactivation. The class given is biochemical. More on the design: fusion protein of GST and the intracellular domains of Tie-2; GST; made in house; host or cells: insect cells (Hi-5). The conditions noted are these: GST-Tie-2 intracellular domains, 10 μM ATP, read-out: Tie2 activity (assay 2). The text has this:
Tie2-inhibitory activity of compounds of the present invention was quantified employing two Tie2 HTRF assay as described in the following paragraphs.
A recombinant fusion protein of GST and the intracellular domains of Tie-2, expressed in insect cells (Hi-5) and purified by Glutathion-Sepharose affinity chromatography was used as kinase. Alternatively, commercially available GST-Tie2-fusion protein (Upstate Biotechnology, Dundee, Scotland) can be used As substrate for the kinase reaction the biotinylated peptide biotin-Ahx-EPKDDAYPLYSDFG (C-terminus in amid form) was used which can be purchased e.g. from the company Biosynthan GmbH (Berlin-Buch, Germany). Detection of phosphorylated product is achieved specifically by a trimeric detection complex consisting of the phosphorylated substrate, streptavidin-XLent (SA-XLent) which binds to biotin, and Europium Cryptate-labeled anti-phosphotyrosine antibody PT66 which binds to phosphorylated tyrosine.
Tie-2 (3.5 ng/measurement point) was incubated for 60 min at 22° C. in the presence of 10 μM adenosine-tri-phosphate (ATP) and 1 μM substrate peptide (biotin-Ahx-EPKDDAYPLYSDFG-NH2) with different concentrations of test compounds (0 μM and concentrations in the range 0.001-20 μM) in 5 μl assay buffer [50 mM Hepes/NaOH pH 7, 10 mM MgCl2, 0.5 mM MnCl2, 1.0 mM dithiothreitol, 0.01% NP40, protease inhibitor mixture (“Complete w/o EDTA” from Roche, 1 tablet per 2.5 ml), 1% (v/v) dimethylsulfoxide]. The reaction was stopped by the addition of 5 μl of an aqueous buffer (25 mM Hepes/NaOH pH 7.5, 0.28% (w/v) bovine serum albumin) containing EDTA (90 mM) and the HTRF (Homogeneous Time Resolved Fluorescence) detection reagents streptavidine-XLent (0.2 μM, from Cis Biointernational, Marcoule, France) and PT66-Eu-Chelate (0.3 ng/μl; a europium-chelate labelled anti-phospho-tyrosine antibody from Perkin Elmer).
The resulting mixture was incubated 1 h at 22° C. to allow the binding of the biotinylated phosphorylated peptide to the streptavidine-XLent and the PT66-Eu-Chelate. Subsequently the amount of phosphorylated substrate peptide was evaluated by measurement of the resonance energy transfer from the PT66-Eu-Chelate to the streptavidine-XLent. Therefore, the fluorescence emissions at 620 nm and 665 nm after excitation at 350 nm was measured in a HTRF reader, e.g. a Rubystar (BMG Labtechnologies, Offenburg, Germany) or a Viewlux (Perkin-Elmer). The ratio of the emissions at 665 nm and at […] was taken as the measure for the amount of phosphorylated substrate peptide. The data were normalised (enzyme reaction without inhibitor=0% inhibition, all other assay components but no enzyme=100% inhibition) and IC50 values were calculated by a 4 parameter fit using an inhouse software.
Target sequence in this assay (Q02763 770-1124 limits assumed): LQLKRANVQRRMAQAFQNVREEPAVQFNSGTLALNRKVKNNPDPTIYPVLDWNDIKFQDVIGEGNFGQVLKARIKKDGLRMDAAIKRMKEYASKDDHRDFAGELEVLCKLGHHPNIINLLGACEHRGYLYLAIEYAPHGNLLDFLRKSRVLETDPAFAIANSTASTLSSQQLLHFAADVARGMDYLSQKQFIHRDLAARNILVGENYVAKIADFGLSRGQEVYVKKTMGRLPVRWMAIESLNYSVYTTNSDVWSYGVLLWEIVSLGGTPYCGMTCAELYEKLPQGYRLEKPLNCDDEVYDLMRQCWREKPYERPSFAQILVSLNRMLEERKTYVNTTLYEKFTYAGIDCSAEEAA

For assay [2], the target named is T1, Tie2. Description: Tie2 ELISA assay (cellular Tie2 autophosphorylation, angiopoietin-2 stimulated). Conditions: CHO cells stably transfected with Tie2, stimulated by angiopoietin-2; Tie2 autophosphorylation by sandwich-ELISA; read-out: Tie2 activity (assay 1). The class given is cell-based. More on the design: expressed in transfected cells; host or cells: CHO (DHFR-deficient), stably transfected with Tie2. Here is the method:
Assay 1: Tie2 ELISA Assay
Cellular activity of compounds of the present invention as inhibitors of Tie2 kinase activity was measured employing a Tie2 ELISA assay as described in the following paragraphs. Herein CHO cell-cultures, which are stably transfected by known techniques with Tie2 using DHFR deficiency as selection marker, are stimulated by angiopoietin-2. The specific autophosphorylation of Tie2 receptors is quantified with a sandwich-ELISA using anti-Tie2 antibodies for catch and anti-phosphotyrosine antibodies coupled to HRP for detection.
• 96well tissue culture plate, sterile, Greiner • 96well FluoroNunc plate MaxiSorp Surface C, Nunc • 96well plate polypropylene for compound dilution in DMSO • CHO Tie2/DHFR (transfected cells) • PBS−; PBS++, DMSO • MEM alpha Medium with Glutamax-I without Ribonucleosides and • Deoxyribonucleosides (Gibco #32561-029) • with 10% FCS after dialysis! and 1% PenStrep • Lysis buffer: 1 Tablet “Complete” protease inhibitor • 1 cap Vanadate (1 mL>40 mg/mL; working solution 2 mM) • ad 50 mL with Duschl-Puffer • pH 7.6 • Anti-Tie2-antibody 1: 425 in Coating Buffer pH 9.6 • Stock solution: 1.275 mg/mL>working.: 3 μg/mL • PBST: 2 bottles PBS(10×)+10 ml Tween, fill up with VE-water • RotiBlock 1: 10 in VE-water • Anti-Phosphotyrosine HRP-Conjugated 1: 10000 in 3% TopBlock • 3% TopBlock in PBST • BM Chemiluminescence ELISA Substrate (POD) • solution B 1: 100 solution A • SF9 cell culture medium • Ang2-Fc in SF9 cell culture medium Cell Experiment: • Dispense 5×10^4 cells/well/98 μL in 96well tissue culture plate • Incubate at 37° C./5% CO2 • After 24 h add compounds according to desired concentrations • Add also to control and stimulated values without compounds 2 μL DMSO • And mix for a few min at room temperature • Add 100 μL Ang2-Fc to all wells except control, which receives insect medium • Incubate 20 min at 37° C. • Wash 3× with PBS++ • Add 100 μl Lysis buffer/well and shake a couple of min at room temperature • Store lysates at […] before utilizing for the ELISA Performance of Sandwich-ELISA • Coat 96well FluoroNunc Plate MaxiSorp Surface C with anti-Tie2 mAb 1: 425 in Coating buffer pH 9.6; 100 μL/well overnight at 4° C. • Wash 2× with PBST • Block plates with 250 μL/well RotiBlock 1: 10 in VE-water • Incubate for 2 h at room temperature or overnight at 4° C. shaking • Wash 2× in PBST • Add thawed lysates to wells and incubate overnight shaking at 4° C. • Wash 2× with PBST • Add 100 μL/well anti-Phosphotyrosine HRP-Conjugated 1:10000 in 3% TopBlock (3% TopBlock in PBST) and incubate overnight under shaking • Wash 6× with PBST • Add 100 μL/well BM Chemiluminescence ELISA Substrate (POD) • solutions 1 und 2 (1:100) • Determine luminescence with the LumiCount. Assay 2: Tie-2-Kinase HTRF-Assay without kinase preactivation
Target sequence in this assay (Q02763 23-1124): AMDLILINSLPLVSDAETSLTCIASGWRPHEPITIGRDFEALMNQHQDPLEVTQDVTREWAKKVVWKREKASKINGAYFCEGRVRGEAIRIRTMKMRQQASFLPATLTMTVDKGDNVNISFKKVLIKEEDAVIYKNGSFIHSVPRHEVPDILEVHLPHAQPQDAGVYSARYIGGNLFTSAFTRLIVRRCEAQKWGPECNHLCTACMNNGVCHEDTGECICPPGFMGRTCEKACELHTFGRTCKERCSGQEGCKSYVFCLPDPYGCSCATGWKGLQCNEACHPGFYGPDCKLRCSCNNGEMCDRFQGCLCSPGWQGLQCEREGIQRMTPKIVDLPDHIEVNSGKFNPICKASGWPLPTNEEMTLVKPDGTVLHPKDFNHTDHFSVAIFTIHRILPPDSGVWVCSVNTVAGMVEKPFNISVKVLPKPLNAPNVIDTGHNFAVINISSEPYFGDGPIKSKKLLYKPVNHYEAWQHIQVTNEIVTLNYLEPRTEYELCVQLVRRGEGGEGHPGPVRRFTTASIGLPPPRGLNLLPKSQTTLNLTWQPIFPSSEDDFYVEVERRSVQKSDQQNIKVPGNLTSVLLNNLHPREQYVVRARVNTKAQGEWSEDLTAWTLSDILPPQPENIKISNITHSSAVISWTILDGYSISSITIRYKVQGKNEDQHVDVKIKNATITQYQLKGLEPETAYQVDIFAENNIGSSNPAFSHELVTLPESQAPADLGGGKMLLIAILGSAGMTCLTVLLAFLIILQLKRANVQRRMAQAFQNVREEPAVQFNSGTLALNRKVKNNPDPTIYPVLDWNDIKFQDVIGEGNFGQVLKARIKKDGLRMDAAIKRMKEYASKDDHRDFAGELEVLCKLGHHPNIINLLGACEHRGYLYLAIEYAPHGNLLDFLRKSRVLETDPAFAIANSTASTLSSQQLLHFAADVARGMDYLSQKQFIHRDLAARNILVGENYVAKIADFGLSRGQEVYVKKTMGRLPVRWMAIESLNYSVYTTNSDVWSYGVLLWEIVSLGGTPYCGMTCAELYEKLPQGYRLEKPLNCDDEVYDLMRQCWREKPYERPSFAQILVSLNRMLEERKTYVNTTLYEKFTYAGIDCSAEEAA

Take `COc1ccc(C#Cc2cnc(Nc3ccc(S(C)(=N)=O)cc3)nc2N[C@H](C)CO)cc1` (mixture of isomers) [Example 1.1, (RS)—S-(4-[4-((R)-2-Hydroxy-1-methyl-ethylamino)-5-(4-methoxy-phenylethynyl)-pyrimidin-2-ylamino]-phenyl)-S-methylsulfoximide]: the IC50 at Tie2 [1] and at Tie2 [2] was < 0.5 µM in each case.
`C[C@H](CO)Nc1nc(Nc2ccc(S(C)(=N)=O)cc2)ncc1C#Cc1ccccc1` (mixture of isomers) [Example 1.2, (RS)-S-(4-[4-((R)-2-Hydroxy-1-methyl-ethylamino)-5-(phenylethynyl)-pyrimidin-2-ylamino]-phenyl)-S-methylsulfoximide]: the IC50 on Tie2 [1] and at Tie2 [2] was < 0.5 µM each time.
Consider `CCc1ccc(C#Cc2cnc(Nc3ccc(S(C)(=N)=O)cc3)nc2N[C@H](C)CO)cc1` (mixture of isomers) [Example 1.8, (RS)-S-(4-[5-(4-Ethyl-phenylethynyl)-4-((R)-2-hydroxy-1-methyl-ethylamino)-pyrimidin-2-ylamino]-phenyl)-S-methylsulfoximide], for which the IC50 on Tie2 [1] and on Tie2 [2] was < 0.5 µM in each case.
As to `C[C@H](CO)Nc1nc(Nc2ccc(S(C)(=N)=O)cc2)ncc1C#Cc1ccc(F)cc1` (mixture of isomers) [Example 1.9, (RS)-S-(4-[5-(4-Fluoro-phenyl-ethynyl)-4-((R)-2-hydroxy-1-methyl-ethylamino)-pyrimidin-2-ylamino]-phenyl)-S-methylsulfoximide], the IC50 at Tie2 [1] and at Tie2 [2] was < 0.5 µM throughout.
As to `Cc1cc(C#Cc2cnc(Nc3ccc(S(C)(=N)=O)cc3)nc2N[C@H](C)CO)ccc1F` (mixture of isomers) [Example 1.13, (RS)-S-(4-[5-(4-Fluoro-3-methyl-phenyl-ethynyl)-4-((R)-2-hydroxy-1-methyl-ethylamino)-pyrimidin-2-ylamino]-phenyl)-S-methylsulfoximide], the IC50 on Tie2 [1] and on Tie2 [2] was < 0.5 µM in each case.
With `CC(C)NC(=O)N=S(C)(=O)c1cccc(Nc2ncc(C#Cc3cccc(O)c3)c(N[C@H](C)CO)n2)c1` (mixture of isomers) [Example 1.15, (RS)-S-(3-[4-((R)-2-Hydroxy-1-methyl-ethylamino)-5-(3-hydroxy-phenylethynyl)-pyrimidin-2-ylamino]-phenyl)-N-(isopropylcarbamoyl)-S-methylsulfoximide], the IC50 at Tie2 [1] and at Tie2 [2] was < 0.5 µM throughout.
With `COc1ccc(C#Cc2cnc(Nc3cccc(S(C)(=N)=O)c3)nc2N[C@H](C)CO)cc1` (mixture of isomers) [Example 1.17, (RS)-S-(3-[4-((R)-2-Hydroxy-1-methyl-ethylamino)-5-(4-methoxy-phenylethynyl)-pyrimidin-2-ylamino]-phenyl)-S-methylsulfoximide], the IC50 at Tie2 [1] and on Tie2 [2] was < 0.5 µM in each case.
For the molecule `C[C@H](CO)Nc1nc(Nc2cccc(S(C)(=N)=O)c2)ncc1C#Cc1cccc(O)c1` (mixture of isomers) [Example 1.18, (RS)-S-(3-[4-((R)-2-Hydroxy-1-methyl-ethylamino)-5-(3-hydroxy-phenylethynyl)-pyrimidin-2-ylamino]-phenyl)-S-methylsulfoximide], the IC50 on Tie2 [1] and at Tie2 [2] was < 0.5 µM each time.
As to `Cc1ccccc1C#Cc1cnc(Nc2cccc(S(C)(=N)=O)c2)nc1N[C@H](C)CO` (mixture of isomers) [Example 1.19, (RS)-S-(3-[4-((R)-2-Hydroxy-1-methyl-ethylamino)-5-(2-methyl-phenylethynyl)-pyrimidin-2-ylamino]-phenyl)-S-methylsulfoximide], the IC50 at Tie2 [1] and on Tie2 [2] was < 0.5 µM each time.
Consider `Cc1cc(C#Cc2cnc(Nc3cccc(S(C)(=N)=O)c3)nc2N[C@H](C)CO)ccc1F` (mixture of isomers) [Example 1.20, (RS)-S-(3-[5-(4-Fluoro-3-methyl-phenyl-ethynyl)-4-((R)-2-hydroxy-1-methyl-ethylamino)-pyrimidin-2-ylamino]-phenyl)-S-methylsulfoximide], for which the IC50 at Tie2 [1] and on Tie2 [2] was < 0.5 µM in each case.
As to `Cc1ccccc1C#Cc1cnc(Nc2ccc(S(C)(=N)=O)cc2)nc1N[C@H](C)CO` (mixture of isomers) [Example 1.3], the IC50 on Tie2 [1] and on Tie2 [2] was < 0.5 µM in each case.
Turning to `Cc1ccc(C#Cc2cnc(Nc3ccc(S(C)(=N)=O)cc3)nc2N[C@H](C)CO)cc1` (mixture of isomers) [Example 1.5], the IC50 at Tie2 [1] and at Tie2 [2] was < 0.5 µM in each case.
As for `CCNc1nc(Nc2ccc(S(C)(=N)=O)cc2)ncc1C#Cc1ccc(F)c(C)c1` (racemic) [Example 1.24, (RS)-S-(4-[4-ethylamino-5-(4-fluoro-3-methyl-phenyl-ethynyl)-pyrimidin-2-ylamino]-phenyl)-S-methylsulfoximide], the IC50 on Tie2 [1] and on Tie2 [2] was < 0.5 µM throughout.
`CCNc1nc(Nc2ccc(S(C)(=N)=O)cc2)ncc1C#Cc1ccc(OC)cc1` (racemic) [Example 1.26, (RS)-S-(4-[4-ethylamino-5-(4-methoxy-phenyl-ethynyl)-pyrimidin-2-ylamino]-phenyl)-S-methylsulfoximide]: the IC50 on Tie2 [1] and at Tie2 [2] was < 0.5 µM in each case.
Consider `CCOC(=O)N=S(C)(=O)c1ccc(Nc2ncc(C#Cc3cccc(O)c3)c(N[C@H](C)CO)n2)cc1` (mixture of isomers) [Example 2.7], for which the IC50 at Tie2 [1] and on Tie2 [2] was < 0.5 µM each time.
In the case of `CS(=N)(=O)c1cccc(Nc2ncc(C#Cc3cccc(O)c3)cn2)c1` (racemic) [Example 4.2, (RS)—S-(3-[5-(3-hydroxy-phenylethynyl)-pyrimidin-2-ylamino]-phenyl)-S-methylsulfoximide], the IC50 at Tie2 [1] and at Tie2 [2] was < 0.5 µM throughout.

Source of the values: patent US8642611B2, “Alkynylpyrimidines and salts thereof, pharmaceutical compositions comprising same, methods of preparing same and uses of same” (Bayer Intellectual Property GmbH, priority 2007, dated 2014).
